Reference: patent publication US20210189342A1, “COMPOSITIONS AND METHODS FOR MODULATING MONOCYTE AND MACROPHAGE INFLAMMATORY PHENOTYPES AND IMMUNOTHERAPY USES THEREOF” (Verseau Therapeutics, Inc., priority 2018, published 2021)

tested on: CD53; experiment: siRNA dose response, CD53 mRNA knockdown, bDNA Assay; assay type: cell-based, human; conditions: THP-1, 24 hr
Description: (§1) Dose response curves for siRNAs were generated in vitro using a variety of cell lines according to Table 4.
(§2) Briefly, cells were seeded in 96-well plates and reverse transfected with siRNA, Lipofectamine® 2000 (0.5 uL/well; ThermoFisher), and, in some cases, a reporter plasmid (50 ng/well). The reporter plasmid (psiCHECK™-2, Promega) encoded both firefly luciferase and the gene of interest fused to renilla luciferase; silencing of the gene of interest results in proportional silencing of renilla luciferase but leaves firefly luciferase unaffected as an internal control.
(§3) After 24 hr incubation at 37° C., mRNA knockdown was measured using an endpoint assay. For targets without a reporter plasmid, a branched DNA (bDNA) assay was performed according to the manufacturer's instructions (QuantiGene® Singleplex Gene Expression Assay, ThermoFisher) to measure both the target gene and GAPDH (housekeeping gene) mRNA. Data are plotted as siRNA concentration (nM) vs. remaining mRNA (ratio of target gene to GAPDH, normalized to mock siRNA-transfected cells). For targets with a reporter plasmid, a Dual-Glo® Luciferase Assay was performed according to the manufacturer's instructions (Promega) to measure firefly and renilla luciferase expression. Data are plotted as siRNA concentration (nM) vs. remaining mRNA (ratio of renilla to firefly luminescence, normalized to mock siRNA-transfected cells).
(§4) For all dose response curves, a 4-parameter logistic model was applied to determine the IC50 of each siRNA sequence (Table 5 and FIG. 2). Data shown in Table 5 and FIG. 2 represent the mean of quadruplicates, +/−standard deviation.

Substance	IC50 [nM]
XD-09201: siRNA targeting CD53 (sense 5'-gcAuGAGuAGcuugAAAcudTsdT-3'; antisense 5'-AGUUUcAAGCuACUcAUGCdTsdT-3'; as printed in the source, key not given here)	0.067
XD-09205: siRNA targeting CD53 (sense 5'-acuAAuAucuGAGcAucuudTsdT-3'; antisense 5'-AAGAUGCUcAGAuAUuAGUdTsdT-3'; as printed in the source, key not given here)	0.132

tested on: IGSF6; experiment: siRNA dose response, IGSF6 mRNA knockdown, Dual-Glo Luciferase Assay; assay type: cell-based, human; conditions: Hepa1-6 + reporter plasmid, 24 hr
Description: as §1, §2, §3, §4

Substance	IC50 [nM]
XD-09649: siRNA targeting IGSF6 (sense 5'-acAuAuAucAucAgGucuudTsdT-3'; antisense 5'-AAGACCUGAUGAuAuAUGUdTsdT-3'; RNA with 2'-O-methyl and phosphorothioate modifications, case key not given here, as printed in the source, key not given here)	0.503

tested on: CD33; experiment: siRNA dose response, CD33 mRNA knockdown, bDNA Assay; assay type: cell-based, human; conditions: SK-MEL-2, 24 hr
Description: as §1, §2, §3, §4

Substance	IC50 [nM]
XD-09735: siRNA targeting CD33 (sense 5'-caAcGucAccuAuguuccAdTsdT-3'; antisense 5'-UGGAAcAuAGGUGACGUUGdTsdT-3'; as printed in the source, key not given here)	0.818
XD-09732: siRNA targeting CD33 (sense 5'-ggccccAGGAcuAcucAcudTsdT-3'; antisense 5'-AGUGAGuAGUCCUGGGGCCdTsdT-3'; as printed in the source, key not given here)	5.4
XD-09737: siRNA targeting CD33 (sense 5'-cccAAcAAcuGGuaucuuudTsdT-3'; antisense 5'-AAAGAuACcAGUUGUUGGGdTsdT-3'; RNA with 2'-O-methyl and phosphorothioate modifications, case key not given here, as printed in the source, key not given here)	0.334
XD-09734: siRNA targeting CD33 (sense 5'-acuccucGGuGcucAuAAudTsdT-3'; antisense 5'-AUuAUGAGcACCGAGGAGUdTsdT-3'; as printed in the source, key not given here)	0.74
XD-09738: siRNA targeting CD33 (sense 5'-ccAGAGcAGGAGugGuucAdTsdT-3'; antisense 5'-UGAACcACUCCUGCUCUGGdTsdT-3'; RNA with 2'-O-methyl and phosphorothioate modifications, case key not given here, as printed in the source, key not given here)	0.22
XD-09736: siRNA targeting CD33 (sense 5'-ucAccuAuGuuccacAGAAdTsdT-3'; antisense 5'-UUCUGUGGAAcAuAGGUGAdTsdT-3'; as printed in the source, key not given here)	0.176

tested on: LST1; experiment: siRNA dose response, LST1 mRNA knockdown, bDNA Assay; assay type: cell-based, human; conditions: THP-1, 24 hr
Description: as §1, §2, §3, §4

Substance	IC50 [nM]
XD-09756: siRNA targeting LST1 (sense 5'-ucucGAGccuccGuucAAAdTsdT-3'; antisense 5'-UUUGAACGGAGGCUCGAGAdTsdT-3'; RNA with 2'-O-methyl and phosphorothioate modifications, case key not given here, as printed in the source, key not given here)	6.6
XD-09751: siRNA targeting LST1 (sense 5'-cauuucGccuAAAaGAGcAdTsdT-3'; antisense 5'-UGCUCUUUuAGGCGAAAUGdTsdT-3'; RNA with 2'-O-methyl and phosphorothioate modifications, case key not given here, as printed in the source, key not given here)	1.54
XD-09752: siRNA targeting LST1 (sense 5'-gccuAAAAGAGcAaGGAcudTsdT-3'; antisense 5'-AGUCCUUGCUCUUUuAGGCdTsdT-3'; RNA with 2'-O-methyl and phosphorothioate modifications, case key not given here, as printed in the source, key not given here)	0.737
XD-09750: siRNA targeting LST1 (sense 5'-cuGAucAuuucGccuAAAAdTsdT-3'; antisense 5'-UUUuAGGCGAAAUGAUcAGdTsdT-3'; RNA with 2'-O-methyl and phosphorothioate modifications, case key not given here, as printed in the source, key not given here)	3.59
XD-09755: siRNA targeting LST1 (sense 5'-ggAuccAAGAGcugAcuAudTsdT-3'; antisense 5'-AuAGUcAGCUCUUGGAUCCdTsdT-3'; RNA with 2'-O-methyl and phosphorothioate modifications, case key not given here, as printed in the source, key not given here)	0.046
XD-09758: siRNA targeting LST1 (sense 5'-ugAucAucAucAAaAcuuAdTsdT-3'; antisense 5'-uAAGUUUUGAUGAUGAUcAdTsdT-3'; as printed in the source, key not given here)	8.21
XD-09754: siRNA targeting LST1 (sense 5'-caAGGAGGAuccAaGAGcudTsdT-3'; antisense 5'-AGCUCUUGGAUCCUCCUUGdTsdT-3'; RNA with 2'-O-methyl and phosphorothioate modifications, case key not given here, as printed in the source, key not given here)	0.052

tested on: CXorf21; experiment: siRNA dose response, CXorf21 mRNA knockdown, bDNA Assay; assay type: cell-based, human; conditions: THP-1, 24 hr
Description: as §1, §2, §3, §4

Substance	IC50 [nM]
XD-10502: siRNA targeting CXorf21 (sense 5'-cuGucAGAAGGGuaucucAdTsdT-3'; antisense 5'-UGAGAuACCCUUCUGAcAGdTsdT-3'; RNA with 2'-O-methyl and phosphorothioate modifications, case key not given here, as printed in the source, key not given here)	6.03
XD-10508: siRNA targeting CXorf21 (sense 5'-caAuGuAAAuccAuAGAGAdTsdT-3'; antisense 5'-UCUCuAUGGAUUuAcAUUGdTsdT-3'; as printed in the source, key not given here)	1.65
XD-10503: siRNA targeting CXorf21 (sense 5'-cuAcGuGAGcuGcaAAucAdTsdT-3'; antisense 5'-UGAUUUGcAGCUcACGuAGdTsdT-3'; RNA with 2'-O-methyl and phosphorothioate modifications, case key not given here, as printed in the source, key not given here)	0.654
XD-10506: siRNA targeting CXorf21 (sense 5'-gucuGAAcucAucauGAcAdTsdT-3'; antisense 5'-UGUcAUGAUGAGUUcAGACdTsdT-3'; as printed in the source, key not given here)	0.75
XD-10505: siRNA targeting CXorf21 (sense 5'-cauuAuGGAcAccguGuuudTsdT-3'; antisense 5'-AAAcACGGUGUCcAuAAUGdTsdT-3'; RNA with 2'-O-methyl and phosphorothioate modifications, case key not given here, as printed in the source, key not given here)	13.1
XD-10504: siRNA targeting CXorf21 (sense 5'-gguGAuGGccAuuaAuucAdTsdT-3'; antisense 5'-UGAAUuAAUGGCcAUcACCdTsdT-3'; as printed in the source, key not given here)	1.76

tested on: CCR5; experiment: siRNA dose response, CCR5 mRNA knockdown, Dual-Glo Luciferase Assay; assay type: cell-based, human; conditions: Hepal-6 + reporter plasmid, 24 hr
Description: as §1, §2, §3, §4

Substance	IC50 [nM]
XD-10558: siRNA targeting CCR5 (sense 5'-gcAcAuAcuuGAGacuGuudTsdT-3'; antisense 5'-AAcAGUCUcAAGuAUGUGCdTsdT-3'; as printed in the source, key not given here)	1.05
XD-10559: siRNA targeting CCR5 (sense 5'-gcAAcGAAGGGAAauGucudTsdT-3'; antisense 5'-AGAcAUUUCCCUUCGUUGCdTsdT-3'; as printed in the source, key not given here)	1.02
XD-10550: siRNA targeting CCR5 (sense 5'-ggAAcAAGAuGGAuuAucAdTsdT-3'; antisense 5'-UGAuAAUCcAUCUUGUUCCdTsdT-3'; as printed in the source, key not given here)	0.017
XD-10552: siRNA targeting CCR5 (sense 5'-cauuAAAGAuAGucAucuudTsdT-3'; antisense 5'-AAGAUGACuAUCUUuAAUGdTsdT-3'; as printed in the source, key not given here)	0.07
XD-10551: siRNA targeting CCR5 (sense 5'-ccAuAcAGucAGuaucAAudTsdT-3'; antisense 5'-AUUGAuACUGACUGuAUGGdTsdT-3'; as printed in the source, key not given here)	0.046
XD-10553: siRNA targeting CCR5 (sense 5'-agGuAuGGuuAAuaAGuuudTsdT-3'; antisense 5'-AAACUuAUuAACcAuACCUdTsdT-3'; as printed in the source, key not given here)	0.361
